Experimental findings from patent publication US8916517B2, “Analogs of pituitary adenylate cyclase-activating polypeptide (PACAP) and methods for their use” (The Administrators of the Tulane Educational Fund, priority 2009, dated 2014) are described below.

The subject of assay [1] is human renal proximal tubule epithelial cells. Briefly: Reduction of gentamicin-induced apoptotic cell death of human renal proximal tubule epithelial cells. The assay is classed as cell-based. Particulars: gentamicin 24 hours. As to the method: The inhibitory effects of PACAP38 and the novel PACAP analog on apoptotic cell death was assessed by the quantitative determination of cytoplasmic histone-associated DNA-fragmentation (mono- and oligonucleosomes) after exposure to gentamicin for 24 hours. […] Each value represents the mean plus/minus the standard deviation of four determinations. **p<0.01 and *p<0.05 compared to the group treated only with gentamicin.

The test system of assay [2] is light-chain immunoglobulin-secreting human multiple myeloma cells. Briefly: Inhibition of proliferation of light-chain immunoglobulin-secreting human multiple myeloma cells (bromodeoxyuridine incorporation). The assay is classed as cell-based. As to conditions: inhibition of myeloma cell proliferation. The method, then:
FIG. 3 is a table listing the EC50 for the inhibitory effects of PACAP38, PACAP27, VIP, and eight novel PACAP analogs on the proliferation of light-chain immunoglobulin-secreting myeloma cells. The light-chain immunoglobulin-secreting human multiple myeloma cells were cultured in RPMI 1640 medium supplemented with 10% non-inactivated fetal bovine serum and 0.05 mM 2-mercaptoethanol. The effects of PACAP38, PACAP27, VIP, and the eight novel PACAP analogs on myeloma cell proliferation were assessed by determining incorporation of bromodeoxyuridine into DNA during cell division. The number of myeloma cells approximately doubled during the 24-hour incubation period in the absence of treatment with PACAP-like peptides. Five different concentrations, ranging from 10^-13 M to 10^-5 M, were tested for PACAP38, PACAP27, VIP, and each of the eight novel PACAP analogs. The EC50 was calculated from the concentration response curve using the software package Prism (Graph Pad, San Diego, CA). Each value represents the mean of four-six determinations per experiment. The EC50 for PACAP38 is based on the average of four separate experiments, while the EC50 for PACAP27 and [Pip^3,Aib ^16,28,Ala^17,Lys^34,D-LysIPACAP 38 (SEQ ID NO: 4) is based on the average of two separate experiments.
FIG. 4 is a graph showing a representative concentration response curve from a single experiment on the inhibitory effects PACAP38 and six PACAP38 analogs on the proliferation of light-chain immunoglobulin-secreting human myeloma cells. Each value represents the mean plus/minus the standard error of four-six determinations. Note that replacing pipecolic acid in position 3 of the novel analogs with either nipecotic acid or isonipecotic acid results in an analog with more than four orders of magnitude lower inhibitory potency.
The effects of PACAP38, PACAP27, VIP, and PACAP analogs on myeloma cell proliferation were assessed by determining incorporation bromodeoxyuridine into DNA during cell division. […]

For assay [3], the system named is rat renal proximal tubule epithelial cells. Briefly: Reduction of cisplatin-induced apoptotic cell death of renal proximal tubule epithelial cells (histone-associated DNA fragmentation). Format: cell-based. As to conditions: cisplatin 24 hours, comparable concentrations.
The test system of assay [4] is ischemia/reperfusion injury to the kidney. Briefly: Serum creatinine after renal ischemia/reperfusion injury in mice. The assay is classed as in vivo, male C57BL/6 mice. Particulars: 20 micrograms i.p. 1, 24 and 48 h after start of reperfusion; 45 min renal artery clamping; 72 hours. The method, then:
FIG. 6 is a graph showing the effects of PACAP38 and two novel PACAP analogs on serum creatinine levels in mice following ischemia/reperfusion injury to the kidney. The renal artery in male C57BL/6 mice was clamped bilaterally for 45 minutes in all mice except for the sham-operated mice. Twenty micrograms of PACAP38 or one of the PACAP analogs were given intraperitoneally 1 hour after the start of reperfusion and additional doses were given at 24 and 48 hours after the initial dose. The sham-operated group of mice was injected intraperitoneally with PACAP38 on the same schedule as the mice subjected to ischemia/reperfusion. The control group of mice was injected intraperitoneally with the same volume of saline as for the injections of PACAP38 on the same schedule. All of the mice were euthanized 24 hours after the final injection of saline, PACAP38 or one of the novel PACAP analogs. Each value represents the mean plus/minus the standard error of four determinations. **p<0.01 and *p<0.05 compared to the ischemia/reperfusion group treated with saline. I/R, ischemia/reperfusion; sham, sham-operated.

Assay [5] deals with human myeloma cell line (MM.1 R). In words: Proliferation of dexamethasone-resistant myeloma cell line MM.1R (bromodeoxyuridine incorporation). The assay is classed as cell-based. Particulars: FIG. 9. The method, then:
FIG. 9 is a graph showing the effects PACAP38, [Pip^3,Ala^14,17,Aib^16,28,Lys^34,D-Lys^38] PACAP38(SEQ ID NO: 6) and dexamethasone on the proliferation of light-chain immunoglobulin-secreting human myeloma cell line (MM.1 R) that was derived from a patient who was being treated for multiple myeloma with a dexamethasome-containing regimen. The light-chain immunoglobulin-secreting multiple myeloma cells were cultured in RPMI 1640 medium supplemented with 10% non-inactivated fetal bovine serum and 0.05mM 2-mercaptoethanol. The effects of dexamethasone, PACAP38 and the novel PACAP38 analog on cell proliferation were assessed by determining the incorporation of bromodeoxyuridine into DNA during cell division. Each value represents the mean plus/minus the standard error of four-six determination. The cell lines in FIGS. 8 and 9 were obtained from the same patient at different stages of the treatment (Greenstein et al., Exp Hematol 31 :271-282, 2003).

Entries after “also recorded” stand apart in the source; their conditions may differ. Non-standard residues stand in square brackets, D forms with d. No end group written: not given here. Pip = O=C(O)[C@@H]1CCCCN1; Aib = CC(C)(N)C(=O)O

With “[Pip^3]PACAP38 (HS[Pip]GIFTDSYSRYRKQMAVKKYLAAVLGKRYKQRVKNK-NH2; N-terminus assumed; SMILES CC[C@H](C)[C@H](NC(=O)CNC(=O)[C@@H]1CCCCN1C(=O)[C@H](CO)NC(=O)[C@@H](N)Cc1c[nH]cn1)C(=O)N[C@@H](Cc1ccccc1)C(=O)N[C@H](C(=O)N[C@@H](CC(=O)O)C(=O)N[C@@H](CO)C(=O)N[C@@H](Cc1ccc(O)cc1)C(=O)N[C@@H](CO)C(=O)N[C@@H](CCCNC(=N)N)C(=O)N[C@@H](Cc1ccc(O)cc1)C(=O)N[C@@H](CCCNC(=N)N)C(=O)N[C@@H](CCCCN)C(=O)N[C@@H](CCC(N)=O)C(=O)N[C@@H](CCSC)C(=O)N[C@@H](C)C(=O)N[C@H](C(=O)N[C@@H](CCCCN)C(=O)N[C@@H](CCCCN)C(=O)N[C@@H](Cc1ccc(O)cc1)C(=O)N[C@@H](CC(C)C)C(=O)N[C@@H](C)C(=O)N[C@@H](C)C(=O)N[C@H](C(=O)N[C@@H](CC(C)C)C(=O)NCC(=O)N[C@@H](CCCCN)C(=O)N[C@@H](CCCNC(=N)N)C(=O)N[C@@H](Cc1ccc(O)cc1)C(=O)N[C@@H](CCCCN)C(=O)N[C@@H](CCC(N)=O)C(=O)N[C@@H](CCCNC(=N)N)C(=O)N[C@H](C(=O)N[C@@H](CCCCN)C(=O)N[C@@H](CC(N)=O)C(=O)N[C@@H](CCCCN)C(N)=O)C(C)C)C(C)C)C(C)C)[C@@H](C)O) [SEQ ID NO:12]”, the “cytoprotective potency, PACAP38 versus [Pip^3]PACAP38” value in assay [1] is on record as “less potent than PACAP38”. In addition, in assay [1] (various concentrations), the “reduction in gentamicin-induced apoptotic cell death” value is “significant dose-dependent reduction; also recorded: dose-dependent inhibition”. With PACAP27, the “potency compared with PACAP38 or the novel PACAP38 analogs” value in assay [2] is “significantly less potent”.

“[Pip^3,Aib^16,28,Ala^17,Lys^34,D-Lys^38]PACAP38 (HS[Pip]GIFTDSYSRYRK[Aib]AAVKKYLAAVL[Aib]KRYKQKVKN[dK]-NH2; N-terminus assumed; SMILES CC[C@H](C)[C@H](NC(=O)CNC(=O)[C@@H]1CCCCN1C(=O)[C@H](CO)NC(=O)[C@@H](N)Cc1c[nH]cn1)C(=O)N[C@@H](Cc1ccccc1)C(=O)N[C@H](C(=O)N[C@@H](CC(=O)O)C(=O)N[C@@H](CO)C(=O)N[C@@H](Cc1ccc(O)cc1)C(=O)N[C@@H](CO)C(=O)N[C@@H](CCCNC(=N)N)C(=O)N[C@@H](Cc1ccc(O)cc1)C(=O)N[C@@H](CCCNC(=N)N)C(=O)N[C@@H](CCCCN)C(=O)NC(C)(C)C(=O)N[C@@H](C)C(=O)N[C@@H](C)C(=O)N[C@H](C(=O)N[C@@H](CCCCN)C(=O)N[C@@H](CCCCN)C(=O)N[C@@H](Cc1ccc(O)cc1)C(=O)N[C@@H](CC(C)C)C(=O)N[C@@H](C)C(=O)N[C@@H](C)C(=O)N[C@H](C(=O)N[C@@H](CC(C)C)C(=O)NC(C)(C)C(=O)N[C@@H](CCCCN)C(=O)N[C@@H](CCCNC(=N)N)C(=O)N[C@@H](Cc1ccc(O)cc1)C(=O)N[C@@H](CCCCN)C(=O)N[C@@H](CCC(N)=O)C(=O)N[C@@H](CCCCN)C(=O)N[C@H](C(=O)N[C@@H](CCCCN)C(=O)N[C@@H](CC(N)=O)C(=O)N[C@H](CCCCN)C(N)=O)C(C)C)C(C)C)C(C)C)[C@@H](C)O) [SEQ ID NO:4]”: the “cytoprotective potency compared with PACAP38” value in assay [3] is recorded as “either as effective or more effective than PACAP38”. On to “[Pip^3,Ala^15,17,Aib^16,28,Lys^34,D-Lys^38]PACAP38 (HS[Pip]GIFTDSYSRYRA[Aib]AAVKKYLAAVL[Aib]KRYKQKVKN[dK]-NH2; N-terminus assumed; SMILES CC[C@H](C)[C@H](NC(=O)CNC(=O)[C@@H]1CCCCN1C(=O)[C@H](CO)NC(=O)[C@@H](N)Cc1c[nH]cn1)C(=O)N[C@@H](Cc1ccccc1)C(=O)N[C@H](C(=O)N[C@@H](CC(=O)O)C(=O)N[C@@H](CO)C(=O)N[C@@H](Cc1ccc(O)cc1)C(=O)N[C@@H](CO)C(=O)N[C@@H](CCCNC(=N)N)C(=O)N[C@@H](Cc1ccc(O)cc1)C(=O)N[C@@H](CCCNC(=N)N)C(=O)N[C@@H](C)C(=O)NC(C)(C)C(=O)N[C@@H](C)C(=O)N[C@@H](C)C(=O)N[C@H](C(=O)N[C@@H](CCCCN)C(=O)N[C@@H](CCCCN)C(=O)N[C@@H](Cc1ccc(O)cc1)C(=O)N[C@@H](CC(C)C)C(=O)N[C@@H](C)C(=O)N[C@@H](C)C(=O)N[C@H](C(=O)N[C@@H](CC(C)C)C(=O)NC(C)(C)C(=O)N[C@@H](CCCCN)C(=O)N[C@@H](CCCNC(=N)N)C(=O)N[C@@H](Cc1ccc(O)cc1)C(=O)N[C@@H](CCCCN)C(=O)N[C@@H](CCC(N)=O)C(=O)N[C@@H](CCCCN)C(=O)N[C@H](C(=O)N[C@@H](CCCCN)C(=O)N[C@@H](CC(N)=O)C(=O)N[C@H](CCCCN)C(N)=O)C(C)C)C(C)C)C(C)C)[C@@H](C)O) [SEQ ID NO:5]”, for which the “cytoprotective potency compared with PACAP38” value in assay [3] was “either as effective or more effective than PACAP38”. Further, the “reversal of the rise in serum creatinine caused by ischemia/reperfusion” value in assay [4] is on record as “almost completely reversed”. Regarding “[Pip^3,Ala^14,17,Aib^16,28,Lys^34,D-Lys^38]PACAP38 (HS[Pip]GIFTDSYSRYAK[Aib]AAVKKYLAAVL[Aib]KRYKQKVKN[dK]-NH2; N-terminus assumed; SMILES CC[C@H](C)[C@H](NC(=O)CNC(=O)[C@@H]1CCCCN1C(=O)[C@H](CO)NC(=O)[C@@H](N)Cc1c[nH]cn1)C(=O)N[C@@H](Cc1ccccc1)C(=O)N[C@H](C(=O)N[C@@H](CC(=O)O)C(=O)N[C@@H](CO)C(=O)N[C@@H](Cc1ccc(O)cc1)C(=O)N[C@@H](CO)C(=O)N[C@@H](CCCNC(=N)N)C(=O)N[C@@H](Cc1ccc(O)cc1)C(=O)N[C@@H](C)C(=O)N[C@@H](CCCCN)C(=O)NC(C)(C)C(=O)N[C@@H](C)C(=O)N[C@@H](C)C(=O)N[C@H](C(=O)N[C@@H](CCCCN)C(=O)N[C@@H](CCCCN)C(=O)N[C@@H](Cc1ccc(O)cc1)C(=O)N[C@@H](CC(C)C)C(=O)N[C@@H](C)C(=O)N[C@@H](C)C(=O)N[C@H](C(=O)N[C@@H](CC(C)C)C(=O)NC(C)(C)C(=O)N[C@@H](CCCCN)C(=O)N[C@@H](CCCNC(=N)N)C(=O)N[C@@H](Cc1ccc(O)cc1)C(=O)N[C@@H](CCCCN)C(=O)N[C@@H](CCC(N)=O)C(=O)N[C@@H](CCCCN)C(=O)N[C@H](C(=O)N[C@@H](CCCCN)C(=O)N[C@@H](CC(N)=O)C(=O)N[C@H](CCCCN)C(N)=O)C(C)C)C(C)C)C(C)C)[C@@H](C)O) [SEQ ID NO:6]”, the “cytoprotective potency compared with PACAP38” value in assay [3] was “either as effective or more effective than PACAP38”. In assay [5], the “sensitivity of cell proliferation” value is “still sensitive”. Also, in assay [4], the “reversal of the rise in serum creatinine caused by ischemia/reperfusion” value is listed as “almost completely reversed”.
